Experimental data reported in ChEMBL document CHEMBL3137667, “[Drug-induced liver injury; fourteenth updated edition of the bibliographic database of liver injuries and related drugs]” (Gastroenterol Clin Biol, 2004).

Legend:
[1] = human
[2] = human, serum, 4383 h
[3] = human; remark: listed apart in the source
[4] = Times to onset, minimal and maximal, observed in the indexed observations. [column 'DELAI' in source]; settings: human
[5] = Highest frequency of moderate liver toxicity observed during clinical trials, expressed as a percentage. [column '% BIOL' in source]; settings: human
[6] = human, serum
[7] = human; remark: listed apart in the source
[8] = human; remark: listed apart in the source
[9] = human; remark: listed apart in the source
[10] = human; remark: listed apart in the source
[11] = human; remark: listed apart in the source
[12] = human; remark: listed apart in the source
[13] = human; remark: listed apart in the source
[14] = Highest frequency of acute liver toxicity observed during clinical trials, expressed as a percentage. [column '% AIGUE' in source]; settings: human
[15] = human, serum; remark: listed apart in the source
[16] = human; remark: listed apart in the source
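For Hepatotoxicity (association with vascular disease) in this document: count of indexed literature references reporting vascular liver injury in humans, e.g. peliosis hepatitis, hepatic veno-occlusive disease or Budd-Chiari syndrome.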
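For Hepatotoxicity (benign tumour) in this document: value is a count of indexed literature references citing a benign tumour confirmed by histopathology.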
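For Hepatotoxicity (choleostasis) in this document: human cholestatic liver injury, shown by histopathology or by peak ALT or AST elevation over alkaline phosphatase ratio below 2, value counts indexed literature reports.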
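For Hepatotoxicity (chronic liver disease) in this document: chronic liver injury confirmed by histopathology or persistently raised serum aminotransferase activity beyond 6 months, value given as the count of indexed literature references.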
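For Hepatotoxicity (cirrhosis) in this document: value is a count of indexed literature references reporting cirrhosis confirmed by histopathology.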
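For Hepatotoxicity (cytolytic) in this document: human cytolytic liver injury, shown by histopathology or by a ratio above 5 of peak ALT or AST elevation to alkaline phosphatase elevation, value counts indexed references.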
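For Hepatotoxicity (granulomatous hepatitis) in this document: value is a count of indexed literature references reporting granulomatous liver disease confirmed by histopathology.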
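For Hepatotoxicity (malignant tumour) in this document: malignant tumour confirmed by histopathology, value gives the count of indexed literature references reporting it.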
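For Hepatotoxicity (severe hepatitis) in this document: human clinical data: severe hepatitis, meaning potentially life-threatening liver failure or clinically observed cases, the value counts how many indexed literature references report it.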
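For Hepatotoxicity (steatosis) in this document: steatosis confirmed by histopathology, value is the count of indexed references.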

SMILES: COc1cc(NS(C)(=O)=O)ccc1Nc1c2ccccc2nc2ccccc12 [AMSACRINE]
- Hepatotoxicity (granulomatous hepatitis) [1]: 0
- Hepatotoxicity (chronic liver disease) [2]: 0
- Hepatotoxicity (cytolytic) [3]: 2
- Hepatotoxicity (time to onset) [4]: 5 days - 1 month
- Hepatotoxicity (moderate) [5]: 41%
- Hepatotoxicity (acute) [6]: 2
- Hepatotoxicity (steatosis) [7]: 1
- Hepatotoxicity (association with vascular disease) [8]: 0
- Hepatotoxicity (cirrhosis) [9]: 0
- Hepatotoxicity (animal toxicity known) [10]: yes
- Hepatotoxicity (choleostasis) [11]: 0
- Hepatotoxicity (malignant tumour) [12]: 0
- Hepatotoxicity (severe hepatitis) [13]: 4
- Hepatotoxicity (acute) [14]: 0%
- Hepatotoxicity (moderate) [15]: 10
- Hepatotoxicity (benign tumour) [16]: 0

SMILES: CCCC1C(=O)N2C(N(C)C)=Nc3ccc(C)cc3N2C1=O (stereo not drawn) [APAZONE]
- Hepatotoxicity (granulomatous hepatitis) [1]: 1
- Hepatotoxicity (chronic liver disease) [2]: 0
- Hepatotoxicity (cytolytic) [3]: 0
- Hepatotoxicity (time to onset) [4]: 3 weeks
- Hepatotoxicity (moderate) [5]: 0%
- Hepatotoxicity (steatosis) [7]: 0
- Hepatotoxicity (association with vascular disease) [8]: 0
- Hepatotoxicity (cirrhosis) [9]: 0
- Hepatotoxicity (animal toxicity known) [10]: yes
- Hepatotoxicity (choleostasis) [11]: 1
- Hepatotoxicity (malignant tumour) [12]: 0
- Hepatotoxicity (severe hepatitis) [13]: 0
- Hepatotoxicity (moderate) [15]: 1
- Hepatotoxicity (benign tumour) [16]: 0

SMILES: Nc1ncn([C@@H]2O[C@H](CO)[C@@H](O)[C@H]2O)c(=O)n1 [AZACITIDINE]
- Hepatotoxicity (granulomatous hepatitis) ([1]; Liver): 0
- Hepatotoxicity (chronic liver disease) [2]: 0
- Hepatotoxicity (cytolytic) ([3]; Liver): 1
- Hepatotoxicity (time to onset) [4]: 1 week
- Hepatotoxicity (moderate) ([5]; Liver): 62.5%
- Hepatotoxicity (acute) [6]: 1
- Hepatotoxicity (steatosis) [7]: 0
- Hepatotoxicity (association with vascular disease) [8]: 0
- Hepatotoxicity (cirrhosis) [9]: 0
- Hepatotoxicity (animal toxicity known) [10]: yes
- Hepatotoxicity (choleostasis) ([11]; Liver): 0
- Hepatotoxicity (malignant tumour) [12]: 0
- Hepatotoxicity (severe hepatitis) ([13]; Liver): 2
- Hepatotoxicity (acute) ([14]; Liver): 0%
- Hepatotoxicity (moderate) [15]: 5
- Hepatotoxicity (benign tumour) [16]: 0

SMILES: CCN1CC(CCN2CCOCC2)C(c2ccccc2)(c2ccccc2)C1=O (stereo not drawn) [DOXAPRAM]
- Hepatotoxicity (granulomatous hepatitis) [1]: 0
- Hepatotoxicity (chronic liver disease) [2]: 0
- Hepatotoxicity (cytolytic) [3]: 1
- Hepatotoxicity (time to onset) [4]: 1 day - 5 days
- Hepatotoxicity (moderate) [5]: 0%
- Hepatotoxicity (acute) [6]: 1
- Hepatotoxicity (steatosis) [7]: 1
- Hepatotoxicity (association with vascular disease) [8]: 0
- Hepatotoxicity (cirrhosis) [9]: 0
- Hepatotoxicity (animal toxicity known) [10]: yes
- Hepatotoxicity (choleostasis) [11]: 0
- Hepatotoxicity (malignant tumour) [12]: 0
- Hepatotoxicity (severe hepatitis) [13]: 0
- Hepatotoxicity (acute) [14]: 0%
- Hepatotoxicity (moderate) [15]: 1
- Hepatotoxicity (benign tumour) [16]: 0

SMILES: O=c1[nH]c(=O)n([C@@H]2O[C@H](CO)[C@@H](O)[C@@H]2F)cc1I [FIALURIDINE]
- Hepatotoxicity (granulomatous hepatitis) [1]: 0
- Hepatotoxicity (chronic liver disease) [2]: 0
- Hepatotoxicity (cytolytic) [3]: 0
- Hepatotoxicity (time to onset) [4]: 9.5 weeks - 4 months
- Hepatotoxicity (moderate) [5]: 0%
- Hepatotoxicity (acute) [6]: 1
- Hepatotoxicity (steatosis) [7]: 1
- Hepatotoxicity (association with vascular disease) [8]: 0
- Hepatotoxicity (cirrhosis) [9]: 0
- Hepatotoxicity (animal toxicity known) [10]: yes
- Hepatotoxicity (choleostasis) [11]: 0
- Hepatotoxicity (malignant tumour) [12]: 0
- Hepatotoxicity (severe hepatitis) [13]: 3
- Hepatotoxicity (acute) [14]: 33.3%
- Hepatotoxicity (moderate) [15]: 0
- Hepatotoxicity (benign tumour) [16]: 0

SMILES: COc1ccc2nc(NC(=O)Nc3ccccc3)sc2c1 [FRENTIZOLE]
- Hepatotoxicity (granulomatous hepatitis) [1]: 0
- Hepatotoxicity (chronic liver disease) [2]: 1
- Hepatotoxicity (cytolytic) [3]: 2
- Hepatotoxicity (time to onset) [4]: 1 week - 1 month
- Hepatotoxicity (moderate) [5]: 70%
- Hepatotoxicity (acute) [6]: 2
- Hepatotoxicity (steatosis) [7]: 0
- Hepatotoxicity (association with vascular disease) [8]: 0
- Hepatotoxicity (cirrhosis) [9]: 0
- Hepatotoxicity (animal toxicity known) [10]: yes
- Hepatotoxicity (choleostasis) [11]: 0
- Hepatotoxicity (malignant tumour) [12]: 0
- Hepatotoxicity (severe hepatitis) [13]: 1
- Hepatotoxicity (acute) [14]: 0%
- Hepatotoxicity (moderate) [15]: 4
- Hepatotoxicity (benign tumour) [16]: 0

SMILES: O=C(O)/C=C/C(=O)O [FUMARIC ACID]
- Hepatotoxicity (granulomatous hepatitis) [1]: 0
- Hepatotoxicity (chronic liver disease) [2]: 0
- Hepatotoxicity (cytolytic) [3]: 0
- Hepatotoxicity (time to onset) [4]: 2 months
- Hepatotoxicity (moderate) [5]: 59%
- Hepatotoxicity (acute) [6]: 0
- Hepatotoxicity (steatosis) [7]: 0
- Hepatotoxicity (association with vascular disease) [8]: 0
- Hepatotoxicity (cirrhosis) [9]: 0
- Hepatotoxicity (animal toxicity known) [10]: yes
- Hepatotoxicity (choleostasis) [11]: 0
- Hepatotoxicity (malignant tumour) [12]: 0
- Hepatotoxicity (severe hepatitis) [13]: 0
- Hepatotoxicity (acute) [14]: 0%
- Hepatotoxicity (moderate) [15]: 6
- Hepatotoxicity (benign tumour) [16]: 0

SMILES: CCN(CC)CCNc1ccc(CO)c2sc3ccccc3c(=O)c12 [HYCANTHONE]
- Hepatotoxicity (granulomatous hepatitis) [1]: 0
- Hepatotoxicity (chronic liver disease) [2]: 1
- Hepatotoxicity (cytolytic) [3]: 3
- Hepatotoxicity (time to onset) [4]: 1 day - 18 days
- Hepatotoxicity (moderate) [5]: 0%
- Hepatotoxicity (acute) [6]: 7
- Hepatotoxicity (steatosis) [7]: 1
- Hepatotoxicity (association with vascular disease) [8]: 0
- Hepatotoxicity (cirrhosis) [9]: 0
- Hepatotoxicity (animal toxicity known) [10]: yes
- Hepatotoxicity (choleostasis) [11]: 1
- Hepatotoxicity (malignant tumour) [12]: 0
- Hepatotoxicity (severe hepatitis) [13]: 16
- Hepatotoxicity (acute) [14]: 0%
- Hepatotoxicity (moderate) [15]: 1
- Hepatotoxicity (benign tumour) [16]: 0

SMILES: CC(C)[C@](O)(C(=O)OCC1=CC[N+]2([O-])CC[C@@H](O)[C@@H]12)[C@H](C)O (stereo partly drawn) [INDICINE N-OXIDE]
- Hepatotoxicity (granulomatous hepatitis) [1]: 0
- Hepatotoxicity (chronic liver disease) [2]: 0
- Hepatotoxicity (cytolytic) [3]: 4
- Hepatotoxicity (time to onset) [4]: 1 cure - 2 cures
- Hepatotoxicity (moderate) [5]: 62.5%
- Hepatotoxicity (acute) [6]: 6
- Hepatotoxicity (steatosis) [7]: 0
- Hepatotoxicity (association with vascular disease) [8]: 1
- Hepatotoxicity (cirrhosis) [9]: 0
- Hepatotoxicity (animal toxicity known) [10]: yes
- Hepatotoxicity (choleostasis) [11]: 0
- Hepatotoxicity (malignant tumour) [12]: 0
- Hepatotoxicity (severe hepatitis) [13]: 4
- Hepatotoxicity (acute) [14]: 22.7%
- Hepatotoxicity (moderate) [15]: 8
- Hepatotoxicity (benign tumour) [16]: 0

SMILES: N[C@@H](Cc1cc(I)c(Oc2cc(I)c(O)c(I)c2)c(I)c1)C(=O)O [LEVOTHYROXINE]
- Hepatotoxicity (granulomatous hepatitis) [1]: 0
- Hepatotoxicity (chronic liver disease) [2]: 0
- Hepatotoxicity (cytolytic) [3]: 0
- Hepatotoxicity (time to onset) [4]: 12 days - 4 years
- Hepatotoxicity (moderate) [5]: 0%
- Hepatotoxicity (acute) [6]: 1
- Hepatotoxicity (steatosis) [7]: 0
- Hepatotoxicity (association with vascular disease) [8]: 0
- Hepatotoxicity (cirrhosis) [9]: 1
- Hepatotoxicity (animal toxicity known) [10]: yes
- Hepatotoxicity (choleostasis) [11]: 0
- Hepatotoxicity (malignant tumour) [12]: 0
- Hepatotoxicity (severe hepatitis) [13]: 0
- Hepatotoxicity (acute) [14]: 0%
- Hepatotoxicity (moderate) [15]: 1
- Hepatotoxicity (benign tumour) [16]: 0
